Patent US6376670B1, “Quinoline-indole antimicrobial agents, uses and compositions related thereto” (Sepracor Inc., priority 1997, dated 2002)

How the values were obtained:
Test in all cases: Determination of MIC values (BHI broth, 96 well microtiter plate)
Format in all cases: cell-based
Streptococcus pneumoniae = settings: Streptococcus pneumoniae; BHI broth, 37° C., overnight (about 16 hours); read-out: MIC S. pneu
How it was run: (§1)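 BHI broth microdilution; final compound 25, 12.5, 6.25, 3.125, 1.56, 0.78, 0.39, 0 µg/mL (1% DMSO). Inoculum 10^5–10^6 cells/mL; 37° C, ~7-10% CO2, ~16 h. MIC = lowest concentration, no observable growth.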

[1] = system: methicillin-resistant Staphylococcus aureus (MRSA); settings: Staphylococcus aureus, MRSA, 16 h, BHI broth, 37° C., overnight (about 16 hours); read-out: MIC MRSA
How it was run: as §1

[2] = system: vancomycin-resistant Enterococcus spp. (VRE); settings: Enterococcus, VRE, 16 h, BHI broth, 37° C., overnight (about 16 hours); read-out: MIC VREF
How it was run: as §1

SMILES | MIC (Streptococcus pneumoniae) [µg/mL] | MIC [1] [µg/mL] | MIC [2] [µg/mL]
NCC1CCCC(CNC(=O)c2cc(-c3c[nH]c4ccc(Br)cc34)nc3ccc(I)cc23)C1 (stereo not drawn) [Example 115] | < 7 | < 7 | < 7
NCc1cccc(CNC(=O)c2cc(-c3c[nH]c4ccc(Br)cc34)nc3ccc(I)cc23)c1 [Example 116] | < 7 | < 7 | < 7
O=C(c1cc(-c2c[nH]c3ccc(Br)cc23)nc2ccc(I)cc12)N1CCCNCC1 [Example 117] | < 7 | < 7 | < 7
Cc1cc2nc(-c3c[nH]c4ccc(Br)cc34)cc(C(=O)NCc3ccc(CN)cc3)c2cc1C [Example 118] | < 7 | < 7 | < 7
Cn1cc(-c2cc(C(=O)NCc3ccc(CN)cc3)c3ccccc3n2)c2cc(Br)ccc21 [Example 119] | < 7 | < 7 | < 25
Cc1ccc2nc(-c3c[nH]c4ccc(Br)cc34)cc(C(=O)NCc3cccc(CN)c3)c2c1 [Example 122] | < 7 | < 7 | < 7
NCC1CCCC(CNC(=O)c2cc(-c3c[nH]c4ccc(Br)cc34)nc3ccc(Br)cc23)C1 (stereo not drawn) [Example 123] | < 7 | < 7 | < 7
NCC1CCC(CNC(=O)c2cc(-c3c[nH]c4ccc(Br)cc34)nc3ccc(Br)cc23)CC1 (stereo not drawn) [Example 124] | < 7 | < 7 | < 7
Cc1cc2nc(-c3c[nH]c4ccc(Br)cc34)cc(C(=O)NCC3CCCC(CN)C3)c2cc1C (stereo not drawn) [Example 127] | < 7 | < 7 | < 7
Cc1cc2nc(-c3c[nH]c4ccc(Br)cc34)cc(C(=O)NCC3CCC(CN)CC3)c2cc1C (stereo not drawn) [Example 128] | < 7 | < 7 | < 7
NC1CCC(NC(=O)c2cc(-c3c[nH]c4ccc(Br)cc34)nc3ccc(Cl)cc23)CC1 (stereo not drawn) [Example 131] | < 7 | < 7 | < 25
NCC1CCCC(CNC(=O)c2cc(-c3c[nH]c4ccc(Br)cc34)nc3ccc(Cl)cc23)C1 (stereo not drawn) [Example 132] | < 7 | < 7 | < 7
NCC1CCC(CNC(=O)c2cc(-c3c[nH]c4ccc(Br)cc34)nc3ccc(Cl)cc23)CC1 (stereo not drawn) [Example 133] | < 7 | < 7 | < 7
NCc1cccc(CNC(=O)c2cc(-c3c[nH]c4ccc(Br)cc34)nc3ccc(Cl)cc23)c1 [Example 134] | < 7 | < 7 | < 7
O=C(c1cc(-c2c[nH]c3ccc(Br)cc23)nc2ccc(Cl)cc12)N1CCNCC1 [Example 136] | < 7 | < 7 | < 7
NCc1ccc(CNC(=O)c2cc(-c3c[nH]c4ccc(Br)cc34)nc3cc(Br)ccc23)cc1 [Example 138] | < 7 | < 7 | < 7
NCc1ccc(CNC(=O)c2cc(-c3c[nH]c4ccc(Br)cc34)nc3c(Br)cccc23)cc1 [Example 139] | < 7 | < 7 | < 7
NCc1ccc(CNC(=O)c2cc(-c3c[nH]c4ccc(Br)cc34)nc3cc(Cl)ccc23)cc1 [Example 142] | < 7 | < 7 | < 7
NCc1ccc(CNC(=O)c2cc(-c3c[nH]c4ccc(Br)cc34)nc3c(Cl)cccc23)cc1 [Example 143] | < 7 | < 7 | < 7
NCc1ccc(CNC(=O)c2cc(-c3c[nH]c4ccc(Br)cc34)nc3cc4c(cc23)OCO4)cc1 [Example 144] | < 25 | < 7 | < 25
NCc1ccc(CNC(=O)c2cc(-c3cnc4ccccc4c3)nc3ccc(I)cc23)cc1 [Example 151] | > 25 | > 25 | > 25
Clc1ccc2nc(-c3c[nH]c4ccc(Br)cc34)ccc2c1 [Example 153] | < 7 | < 7 | > 25
NCc1ccc(COCc2cc(-c3c[nH]c4ccc(Br)cc34)nc3ccc(C(F)(F)F)cc23)cc1 [Example 154] | < 7 | < 7 | < 7
NCc1ccc(CNC(=O)c2cc(-c3c[nH]c4ccc(Br)cc34)nc3cc(Cl)c(I)cc23)cc1 [Example 158] | < 7 | < 7 | < 7
NCc1ccc(CNC(=O)c2cc(-c3c[nH]c4ccccc34)nc3ccc(I)cc23)cc1 [Example 159] | < 25 | < 7 | < 25
Cc1ccc2c(C(=O)NCc3ccc(CN)cc3)cc(-c3c[nH]c4ccc(Br)cc34)nc2c1 [Example 161] | < 7 | < 7 | < 7
c1ccc2nc(-c3c[nH]c4ccccc34)ccc2c1 [Example 163] | > 25 | < 25 | > 25
